Values joined by “and” are separate entries in the source; they are usually repeats but may differ in a detail not shown here. Equal entries are not always repeated. “Also recorded” adds a separate entry of the source.
Tests used:
[1] = Pharmacokinetics of SNF472 administered as an i.v. bolus; assay type: in vivo, Wistar rats; conditions: for C0: rat plasma phytate, extrapolated concentration at time 0
Procedure: Blood was collected at 5, 15, 60 and 120 min.
(§1) Due to the limitations in obtaining many sequential blood samples from rats, blood samples were only acquired from each animal at three of the nine time-points. Consequently, the area under the curves (AUCs) could not be determined for individual animals and mean AUCs were therefore used to assess dose linearity.
(§2) Following sampling, blood was collected into K3EDTA anticoagulant tubes, centrifuged at 3,500 rpm for 10 min at 4 °C and stored at -80°C pending quantification via UPLC®-MS using the method described by Tur et al.

[2] = Pharmacokinetics of SNF472 administered as a s.c. bolus; assay type: in vivo, Wistar rats; conditions: rat
Procedure: as §1, §2

[3] = Pharmacokinetics of SNF472 via 4 h i.v. infusion in control rats; assay type: in vivo, Wistar rats; conditions: for AUC(0→t) / Cmax: Day 1 (control) rats
Procedure: (§3) The experiment was performed based on a model described by Terai and co-workers[27]. Uremia was induced in 10 male Wistar rats weighing ± 275 g via 10 daily oral administrations of 600 mg/kg adenine (days 1–10). Two further oral doses of 300 ng/kg α-calcidol were administered on days 11 and 13.
as §1, §2

[4] = Pharmacokinetics of SNF472 via 4 h i.v. infusion in adenine-induced uremic rats; assay type: in vivo, Wistar rats; conditions: for AUC(0→t) / Cmax: Day 13 (uremic) rats
Procedure: as §3, §1, §2

[5] = tested on: vitamin D3-induced cardiovascular calcification; assay: Prevention of calcification induced by vitamin D; assay type: in vivo, Sprague Dawley rats
Procedure: Experiments were performed with 20 male Crl:OF Sprague Dawley rats weighing ± 350 g (Charles River Laboratories International, Inc. L’Arbresle, France). Animals were divided into four groups. […] Calcification was induced by 5 consecutive daily oral administrations of 75 kIU/kg vitamin D3 (Fort Dodge, Girona, Spain), starting on day 3 of treatment. Five sham-treated animals with no calcification induction served as controls. Rats were sacrificed 14 days after induction of calcification, and organs collected. Blood was obtained via heart puncture in anesthetized animals immediately before sacrifice.
(§4) Aorta and heart were removed at sacrifice, lyophilized for 24 h and weighed. Lyophilized organs were digested using a 1:1 HNO3:HClO4 mixture in a dry bath incubator for 2–4 h at 180°C and subsequently diluted with MilliQ™ water to a final volume of 10 ml. Calcium and phosphorus contents in serum, heart and aorta were quantified via inductively coupled plasma optical emission spectrometry (ICP-OES) (Perkin-Elmer SL, Optima 5300DV spectrometer)[26].

[6] = tested on: vitamin D3-induced cardiovascular calcification (progression); assay: Inhibition of calcification progression induced by vitamin D; assay type: in vivo, Sprague Dawley rats; conditions: 10 and 60 mg/kg s.c. daily
Procedure: Experiments were performed with 48 male Crl:OF Sprague Dawley rats weighing ± 250 g (Charles River Laboratories International, Inc. L’Arbresle, France) divided into 6 groups. Calcification was induced by 3 consecutive daily s.c. administrations of 100 kIU/kg vitamin D3 (Fort Dodge, Girona, Spain). Four groups were used as controls to evaluate calcification progression throughout the 14 days of study. The animals received daily s.c. injections of vehicle (NaCl 0.9%), starting 5 days after calcification induction. […] Group 1 animals were sacrificed on day 5 to evaluate calcification. Groups 2 and 3 were sacrificed on days 9 and 12, respectively, to follow the progression of calcification in control animals. Groups 4, 5 and 6 were sacrificed on day 14. Blood was obtained via heart puncture in anesthetized animals immediately before sacrifice.
as §4

[7] = tested on: cardiovascular calcification in adenine-induced uremic rats; assay: Inhibition of calcification in a rat model of uremia (adenine + α-calcidol); assay type: in vivo, Wistar rats
Procedure: as §2
All rats were treated daily with adenine (600 mg/kg, suspended in 1% carboxymethyl cellulose, administered orally) for the first 10 days to induce uremia and α-calcidol (300 ng/kg in olive oil, administered orally) three times a week from days 11 to 19 to accelerate and homogenize the development of cardiovascular calcification. On day 19, all surviving animals were sacrificed and blood and tissue samples collected. Blood was obtained via heart puncture in anesthetized animals immediately before sacrifice.
Lyophilized organs were digested using a 1:1 HNO3:HClO4 mixture in a dry bath incubator for 2–4 h at 180°C and subsequently diluted with MilliQ™ water to a final volume of 10 ml. Calcium and phosphorus contents in serum, heart and aorta were quantified via inductively coupled plasma optical emission spectrometry (ICP-OES) (Perkin-Elmer SL, Optima 5300DV spectrometer)[26].
Alkaline phosphatase (ALP) activity (ref. OSR6103), and creatinine (OSR6178) and urea (ref. OSR6134) levels were determined in serum using the Beckman Coulter assay kit (Brea, CA, USA).

[8] = single i.v. bolus 10 mg/kg, rat
[9] = 4 h i.v. infusion 10 mg/kg, uremic rats
[10] = 1 mg/kg i.v. every other day (e.o.d.)
[11] = 50 mg/kg 4 h i.v. infusion daily, uremic rats

Q: For `O=P([O-])(O)OC1C(OP(=O)([O-])O)C(OP(=O)([O-])O)C(OP(=O)([O-])O)C(OP(=O)([O-])O)C1OP(=O)([O-])O.[Na+].[Na+].[Na+].[Na+].[Na+].[Na+]` (centres unmarked) [SNF472, hexasodium salt of myo-inositol hexaphosphate], which “AUC(0→t)” value ([1]; single i.v. bolus 1 mg/kg, rat) is on record?
A: 3491 ng·h/mL

Q: What about the Cl ([1]; single i.v. bolus 1 mg/kg, rat) of the same compound?
A: 4.83 mL/min/kg

Q: And the “MRT (0→∞)” value ([1]; single i.v. bolus 1 mg/kg, rat)?
A: 99 min

Q: What about the C0 ([1]; single i.v. bolus 1 mg/kg) of the same compound?
A: 36775 ng/mL

Q: What about the “AUC(0→t)” value ([1]; single i.v. bolus 5 mg/kg, rat) of the same compound?
A: 19234 ng·h/mL

Q: What about the “MRT (0→∞)” value ([1]; single i.v. bolus 5 mg/kg, rat) of the same compound?
A: 19.8 min

Q: What about the C0 ([1]; single i.v. bolus 5 mg/kg) of the same compound?
A: 84561 ng/mL

Q: What about the “AUC(0→t)” value [1, 8] of the same compound?
A: 38752 ng·h/mL

Q: And the “MRT (0→∞)” value [1, 8]?
A: 11.4 min

Q: And the C0 ([1]; single i.v. bolus 10 mg/kg)?
A: 156750 ng/mL

Q: And the “AUC(0→t)” value ([2]; single s.c. bolus 10 mg/kg)?
A: 1633 ng·h/mL

Q: What about the Cl/F ([2]; single s.c. bolus 10 mg/kg) of the same compound?
A: 3.67 mL/min/kg

Q: What about the Cmax ([2]; single s.c. bolus 10 mg/kg) of the same compound?
A: 4876 ng/mL

Q: And the “MRT (0→∞)” value ([2]; single s.c. bolus 10 mg/kg)?
A: 28.2 min

Q: And the “AUC(0→t)” value ([2]; single s.c. bolus 30 mg/kg)?
A: 32646 ng·h/mL

Q: What about the Cl/F ([2]; single s.c. bolus 30 mg/kg) of the same compound?
A: 4.5 mL/min/kg

Q: And the Cmax ([2]; single s.c. bolus 30 mg/kg)?
A: 61014 ng/mL

Q: What about the “MRT (0→∞)” value ([2]; single s.c. bolus 30 mg/kg) of the same compound?
A: 28.8 min

Q: And the “AUC(0→t)” value ([2]; single s.c. bolus 100 mg/kg)?
A: 139603 ng·h/mL

Q: What about the Cl/F ([2]; single s.c. bolus 100 mg/kg) of the same compound?
A: 3.5 mL/min/kg

Q: And the Cmax ([2]; single s.c. bolus 100 mg/kg)?
A: 263264 ng/mL

Q: What about the “MRT (0→∞)” value ([2]; single s.c. bolus 100 mg/kg) of the same compound?
A: 29.4 min

Q: And the “AUC(0→t)” value ([3]; 4 h i.v. infusion 10 mg/kg)?
A: 16027 ng·h/mL

Q: What about the Cmax ([3]; 4 h i.v. infusion 10 mg/kg, maximum at 240 min) of the same compound?
A: 5548 ng/mL

Q: What about the “steady state during the infusion period” value ([3]; 4 h i.v. infusion 10 mg/kg, control rats) of the same compound?
A: steady state was not achieved

Q: What about the “AUC(0→t)” value ([3]; 4 h i.v. infusion 50 mg/kg) of the same compound?
A: 145212 ng·h/mL

Q: What about the Cmax ([3]; 4 h i.v. infusion 50 mg/kg) of the same compound?
A: 45141 ng/mL

Q: And the “time at which steady state was reached” value ([3]; 4 h i.v. infusion 50 mg/kg, control rats)?
A: 60 min

Q: And the “AUC(0→t)” value ([4]; 4 h i.v. infusion 10 mg/kg)?
A: 3877 ng·h/mL

Q: What about the Cmax ([4]; 4 h i.v. infusion 10 mg/kg, level at 240 min) of the same compound?
A: 1877 ng/mL

Q: What about the “time at which low-level steady state was observed” value [4, 9] of the same compound?
A: 60 min

Q: What about the “time at which maximum levels were reached” value [4, 9] of the same compound?
A: ≤ 30 min

Q: And the “AUC(0→t)” value ([4]; 4 h i.v. infusion 50 mg/kg)?
A: 51665 ng·h/mL

Q: And the Cmax ([4]; 4 h i.v. infusion 50 mg/kg)?
A: 16218 ng/mL

Q: And the “inhibition of aorta calcium vs vehicle” value ([5]; 1 mg/kg i.v. daily)?
A: 60%

Q: What about the “inhibition of heart calcium vs vehicle” value ([5]; 1 mg/kg i.v. daily) of the same compound?
A: 74% and 74.4%

Q: What about the serum phosphorus ([5]; 1 mg/kg i.v. daily, control 14.75 mg/dL, significantly increased) of the same compound?
A: 18.96 mg/dL

Q: And the “mean heart calcium content” value ([5]; 1 mg/kg i.v. daily, vitamin D3 75 kIU/kg p.o. x5, vehicle 3.35 mg/g)?
A: 1.06 mg/g

Q: What about the “mean aortic calcium content” value ([5]; 1 mg/kg i.v. daily, vitamin D3 75 kIU/kg p.o. x5, vehicle 91.1 mg/g) of the same compound?
A: 36.8 mg/g

Q: What about the serum calcium ([5]; 1 mg/kg i.v. daily, vs sham (8.72 mg/dL) and vitamin D control (10.50 mg/dL)) of the same compound?
A: statistically significant higher levels than sham and control groups

Q: What about the “inhibition of aorta calcium vs vehicle” value [5, 10] of the same compound?
A: 56.2%

Q: What about the “inhibition of heart calcium vs vehicle” value [5, 10] of the same compound?
A: 70.4%

Q: And the “inhibition of CVC in non-uremic rats” value ([5]; non-uremic rats, vitamin D3 model)?
A: 60–70%

Q: What about the serum calcium levels [6] of the same compound?
A: not significantly affected

Q: And the “serum phosphorus levels on day 14 vs control” value [6]?
A: No differences

Q: What about the “progression of cardiac calcification” value ([6]; started 5 days after calcification induction) of the same compound?
A: completely blocked; also recorded: completely inhibited further progression

Q: And the “mortality (animals died)” value ([7]; 50 mg/kg 4 h i.v. infusion daily, 12 uremic rats per group, 4 died in control group)?
A: 7 animals

Q: And the “inhibition of development of calcification in aorta” value [7, 11]?
A: up to 80%

Q: And the “mortality vs control group” value [7, 11]?
A: no significant differences

Q: What about the “serum creatinine vs control” value [7, 11] of the same compound?
A: No significant differences

Q: And the “serum urea vs control” value [7, 11]?
A: No significant differences

Q: What about the “circulating (serum) phosphorus” value ([7]; 50 mg/kg 4 h i.v. infusion daily, uremic rats, control 17.6 mg/dL, not significant) of the same compound?
A: 19.9 mg/dL

Q: And the “mean serum ALP activity” value ([7]; 50 mg/kg 4 h i.v. infusion daily, uremic rats, control 295 U/L, not significant)?
A: 725 U/L

Q: And the “median heart calcium content” value ([7]; 50 mg/kg 4 h i.v. infusion daily, uremic rats, control median 1.6 mg/g)?
A: 0.2 mg/g

Q: And the “median aorta calcium content” value ([7]; 50 mg/kg 4 h i.v. infusion daily, uremic rats, control median 65.0 mg/g)?
A: 12.8 mg/g

Q: What about the “reduction in serum calcium levels” value ([7]; 50 mg/kg 4 h i.v. infusion daily, uremic rats, significant vs control) of the same compound?
A: 17%

Q: What about the “signs of hypocalcemia (dyspnea, muscle spasms, convulsions)” value ([7]; 50 mg/kg 4 h i.v. infusion, uremic rats) of the same compound?
A: no signs of hypocalcemia

Q: What about the circulating phytate levels ([7]; non-uremic animals (day 0), end of 4 h i.v. infusion 50 mg/kg) of the same compound?
A: ~ 150,000 ng/mL

Q: And the “decrease in circulating phytate” value ([7]; uremic animals, during and after 4 h of SNF472 infusion)?
A: 90%
